Laboratory results from patent US7732599B2, “Process for preparing tetrahydrobiopterin and analogs of tetrahydrobiopterin” (BioMarin Pharmaceutical Inc., priority 2003, dated 2010).

Test: Solubility in the reaction solvent dimethylaminoacetate at room temperature
Format: physicochemical
Settings: described as low solubility
Experimental: The conversion of the primary hydroxyl of L-Neopterin to a thioether was performed to prepare 6-((1R,2R)-1,2-dihydroxy-3-phenylthiopropyl)-2-[(methylethyl)amino]-3-hydropteridin-4-one (the compound labeled “15” in FIG. 4). To a flask containing 50 grams of 6-((2S,1R)-1,2,3-trihydroxypropyl)-2-[(1Z)-1-aza-2-(dimethylamino)vinyl]-3-hydropteridin-4-one (DMA-Neopterin, the compound labeled “6” in FIG. 2) and 400 ml of dimethylaminoacetate was added to the flask. To this stirring mixture 1 molar equivalent of diphenyl disulfide and tributylphosphine were added to the flask. […] It is believed that the thioether product is more soluble in dimethylaminoacetate. The reaction mixture was allowed to was allowed to stir for 4 hours at room temperature. Nine grams of the thioether product was isolated.

solubility in dimethylaminoacetate: approximately 3.5 mg/ml
SMILES: CN(C)C=Nc1nc2ncc([C@@H](O)[C@@H](O)CO)nc2c(=O)[nH]1 [DMA-Neopterin, 6-((2S,1R)-1,2,3-trihydroxypropyl)-2-[(1Z)-1-aza-2-(dimethylamino)vinyl]-3-hydropteridin-4-one]
